The record followed here is EPA's ToxValDB 9.5.

Structures are written as SMILES.

The test system of data set [1] is Rattus norvegicus. To be noted: repeat dose other; oral.
For data set [2], the system named is Rattus norvegicus. To be noted: oral.
Data set [3] has as its system Rattus norvegicus. To be noted: oral. This is another data set of the same source.
Data set [4] has as its system Rattus norvegicus. To be noted: oral. This is another data set of the same source.
Data set [5] has as its system Rattus norvegicus. To be noted: oral. This is another data set of the same source.
Data set [6] deals with Rattus norvegicus. To be noted: oral. This is another data set of the same source.
Data set [7] relates to Mus musculus. To be noted: M/F.
Data set [8] has as its system Mus musculus. To be noted: oral, gavage, B6C3F1.
Data set [9] has as its system Rattus norvegicus. To be noted: subchronic, oral, gavage.
For data set [10], the system named is Rattus norvegicus.
The mark [11] stands for this setting: chronic, M/F, body weight depression.
The mark [12] stands for this setting: chronic, duration: 2 years, diet, M/F, Crl:CD(SD), reduced weight gain.
The mark [13] stands for this setting: subchronic, M/F, reduced mean terminal body weight (males).
Where [14] appears, read: subchronic, gavage, M, Induction of hepatic enzymes + liver histopathology.

Regarding `[Cr+6]` [Chromium (VI) ion], the LOAEL in data set [1] came out at 13.1 mg/kg-day. The NOAEL was 3.28 mg/kg-day in [1]; 2.4 mg/kg-day in data set [2] (chronic, duration: 1 years, drinking water, None Observed); 25 mg/L in data set [3] (chronic, duration: 1 years, drinking water, M/F, no effects).

In turn, `O=C1CCCCC1` [Cyclohexanone] had an NOAEL in [4] (chronic, duration: 25 weeks, drinking water, M, Fischer 344, Whole Body Effects) of 731 mg/kg-day. In addition, in data set [3] (setting [11]), the LOAEL stood at 910 mg/kg-day and the NOAEL amounted to 462 mg/kg-day.

For `C[C@@H]1C[C@H]2[C@@H]3CCC4=CC(=O)C=C[C@]4(C)[C@@]3(F)[C@@H](O)C[C@]2(C)[C@@]1(O)C(=O)CO` [Dexamethasone], in data set [5] (short-term, gavage, Induction of hepatic tyrosine aminotransferase activity), the NOEL is 0.0015 mg/kg-day.

In data set [5] (setting [12]), `CN[C@@H]1[C@H](O[C@H]2[C@H](O[C@H]3[C@H](O)[C@@H](O)[C@H](N=C(N)N)[C@@H](O)[C@@H]3N=C(N)N)O[C@@H](C)[C@]2(O)CO)O[C@@H](CO)[C@H](O)[C@H]1O` [Dihydrostreptomycin] displayed an LOEL of 10 mg/kg-day and an NOEL of 5 mg/kg-day.

Compound `COC(=O)c1ccccc1C(=O)OC` [Dimethyl phthalate] showed an LOAEL in data set [4] (short-term, duration: 1 weeks, diet, M, Wistar) of 302 mg/kg-day. This compound also had an LD50 in data set [6] (acute) of 6900 mg/kg. Moreover, the no-observed-adverse-effect level (NOAEL) is > 3570 mg/kg-day in data set [6] (developmental, duration: 10 days, diet, Sprague-Dawley) and 840 mg/kg-day in data set [6] (reproduction developmental, duration: 10 days, diet, F, Sprague-Dawley).

`CC[n+]1c(-c2ccccc2)c2cc(N=NNc3cccc(C(=N)N)c3)ccc2c2ccc(N)cc21` [Isometamidium] returned an NOAEL in data set [5] (subchronic, duration: 13 weeks, gavage, M/F, Crl:CD(SD) BR) of 50 mg/kg-day.

With `CCOC(=O)C(C)OC(=O)c1cc(Oc2ccc(C(F)(F)F)cc2Cl)ccc1[N+](=O)[O-]` (stereo not given) [Lactofen], the LEL in [7] (chronic, duration: 78 weeks, oral, hepatocytomegaly in males + Increased absolute and relative liver weight) was 1.5 mg/kg-day.

In turn, `O=C(NC(=O)c1c(F)cccc1F)Nc1cc(Cl)c(OC(F)(F)C(F)C(F)(F)F)cc1Cl` (stereo not given) [Lufenuron] showed a no observed adverse effect level (NOAEL) in data set [5] (chronic, duration: 2 years, Tonic-clonic seizures, histopathological effects on lungs, liver, non-glandular stomach, intestines and urinary tract.) of 1.93 mg/kg-day.

Turning to `[Lu]` [Lutetium], the NOAEL in data set [4] (subchronic, duration: 90 days, diet, M/F, CRW) was determined as 504 mg/kg-day.

In the case of `CN(C)c1ccccc1` [N,N-Dimethylaniline], the LOAEL in data set [8] (short-term, duration: 15 days) worked out at 188 mg/kg-day; in [8] (subchronic, duration: 13 weeks) it was 62.5 mg/kg-day; in [7] (subchronic, oral, gavage, splenomegaly, increased splenic hemosiderosis and hematopoiesis), 31.2 mg/kg-day. Besides, the NOAEL in [8] (short-term, duration: 15 days) amounted to 93.8 mg/kg-day; in [8] (subchronic, duration: 13 weeks), 31.2 mg/kg-day; in data set [6] (short-term, duration: 14 days, gavage, Fischer 344), 93.8 mg/kg-day; in data set [6] (subchronic, duration: 13 weeks, gavage, Fischer 344), 31.2 mg/kg-day. Further, the NOEL in data set [9] (duration: 13 weeks, M/F, Fischer 344, Body Weight Changes: decrease + Histopathology: Spleen-Hematopoiesis, extramedullary Spleen-Hemosiderosis Kidney-Pigmentation Liver-…) was < 31 mg/kg-day; in [9] (M, Sprague-Dawley, Clinical Observation: Dark-red discoloration of skin R + Functional Observational Battery: Dark-red discoloration of skin R + Hematology: …) it was 1 mg/kg-day.

On to `c1ccc2ccccc2c1` [Naphthalene], for which the LOAEL was 52.4 mg/m3 in [10] (chronic, duration: 105 weeks, inhalation, M/F, Fischer 344, respiratory); 50 mg/kg-day in data set [10] (reproduction developmental, duration: 9 days, oral, gavage, F, Sprague-Dawley, neurological); 52.4 mg/m3 in [7] (chronic, inhalation, nasal effects: hyperplasia and metaplasia in respiratory and olfactory epithelium, respectively); 200 mg/kg-day in data set [3] (setting [13]). In data set [3] (setting [13]), this compound came in with an NOAEL of 100 mg/kg-day.

For `[Ni]` [Nickel], the NOAEL in data set [10] (chronic, duration: 2 years, inhalation, M/F, Fischer 344, respiratory) stood at 0.03 mg/m3; in [10] (subchronic, duration: 13 weeks, inhalation, M/F, Fischer 344, respiratory), 0.06 mg/m3; in data set [2] (chronic, duration: 2 years, diet, Organs, major: Decreased organ weight + Whole body: Decreased body weight), 7.8 mg/kg-day.

`Brc1cc(Oc2cc(Br)c(Br)c(Br)c2Br)c(Br)c(Br)c1Br` [Octabromodiphenyl ether]: the NOAEL in [10] (subchronic, duration: 13 weeks, inhalation, nose only, M/F, Crl:CD(SD) BR, endocrine) amounted to 1.1 mg/m3; in data set [2] (subchronic, duration: 90 days, gavage, Liver: Histological changes), 2.5 mg/kg-day; in [3] (setting [14]), 2.51 mg/kg-day. Further, the LOAEL in data set [3] (setting [14]) was 5 mg/kg-day.

The compound `CO[C@H]1C[C@H](O[C@@H]2/C(C)=C/C[C@@H]3C[C@@H](C[C@]4(CC[C@H](C)[C@@H](C5CCCCC5)O4)O3)OC(=O)[C@@H]3C=C(C)/C(=N/O)[C@H]4OC/C(=C\C=C\[C@@H]2C)[C@]43O)O[C@@H](C)[C@@H]1O` [Selamectin] showed an NOAEL in [5] (chronic, duration: 1 years, Increased liver and uterus/cervix weights) of 5 mg/kg-day.
